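Results reflect a 48-hour exposure of cells in 96-well plates to compound at five concentrations. At the GI50, growth is halved.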 Calls of active or inactive are those of the source. Rule as the data show it: active = GI50 up to about 1.1 µM and inactive = higher.
Key:
Experiment in all cases: NCI-60 cell line screen, 48 h
[1] = test system: IGROV-1
[2] = test system: COLO 205
[3] = test system: PC-3
[4] = test system: UO-31
[5] = test system: Hs-578T
[6] = test system: DLD-1
[7] = test system: TK-10
[8] = test system: MDA-MB-231
[9] = test system: SK-OV-3
[10] = test system: LXFL 529
[11] = test system: DMS-273
[12] = test system: NCI-H226
[13] = test system: SN12C
[14] = test system: HL-60
[15] = test system: RPMI-8226
[16] = test system: HCC 2998
[17] = test system: CAKI-1
[18] = test system: SF-539
[19] = test system: BT-549
[20] = test system: LOX IMVI
[21] = test system: A549
[22] = test system: SK-MEL-5
[23] = test system: SF-295
[24] = test system: MOLT-4
[25] = test system: NCI/ADR-RES
[26] = test system: SK-MEL-28
[27] = test system: OVCAR-8
[28] = test system: 786-0
[29] = test system: OVCAR-5
[30] = test system: NCI-H460
[31] = test system: RXF 393
[32] = test system: MDA-N
[33] = test system: OVCAR-3
[34] = test system: HOP-92
[35] = test system: MDA-MB-435
[36] = test system: SW-620
[37] = test system: HCT-116
[38] = test system: SNB-78
[39] = test system: M19-MEL
[40] = test system: XF498
[41] = test system: NCI-H23
[42] = test system: SR
[43] = test system: Malme-3M
[44] = test system: U-251
[45] = test system: HOP-62
[46] = test system: SK-MEL-2
[47] = test system: MCF7
[48] = test system: HT-29
[49] = test system: NCI-H522
[50] = test system: T47D
[51] = test system: UACC-257
[52] = test system: CCRF-CEM
[53] = test system: EKVX
[54] = test system: K562
[55] = test system: UACC-62
[56] = test system: A498
[57] = test system: DU-145
[58] = test system: RXF 631
[59] = test system: M14
[60] = test system: ACHN
[61] = test system: HOP-18
[62] = test system: KM-20L2
[63] = test system: HCT-15
[64] = test system: SNB-75
[65] = test system: KM12
[66] = test system: DMS-114
[67] = test system: SF-268
[68] = test system: OVCAR-4
[69] = test system: SNB-19

With O=P(O)(NCCCl)NCCCl [PALIFOSFAMIDE] the GI50 [1] was > 100 µM (inactive), the GI50 [2] was > 100 µM (inactive) and the GI50 [3] was > 100 µM (inactive). For the same molecule, the GI50 [4] was > 100 µM (inactive), the GI50 [5] was > 100 µM (inactive) and the GI50 [6] was > 10 µM (inactive). For the same molecule, the GI50 [7] was > 10 µM (inactive), the GI50 [8] was > 100 µM (inactive) and the GI50 [9] was > 55.8 µM (inactive). For the same molecule, the GI50 [10] was > 10 µM (inactive), the GI50 [11] was 40 µM (inactive) and the GI50 [12] was > 100 µM (inactive). For the same molecule, the GI50 [13] was 63 µM (inactive), the GI50 [14] was > 51.3 µM (inactive) and the GI50 [15] was > 89.5 µM (inactive). For the same molecule, the GI50 [16] was > 100 µM (inactive), the GI50 [17] was 39.8 µM (inactive) and the GI50 [18] was 52.5 µM (inactive). For the same molecule, the GI50 [19] was > 100 µM (inactive), the GI50 [20] was 29.9 µM (inactive) and the GI50 [21] was 81.5 µM (inactive). For the same molecule, the GI50 [22] was > 10 µM (inactive), the GI50 [23] was 54.1 µM (inactive) and the GI50 [24] was 60.3 µM (inactive). The GI50 [25] was > 100 µM (inactive), the GI50 [26] was > 100 µM (inactive) and the GI50 [27] was > 10 µM (inactive). For the same molecule, the GI50 [28] was > 67.8 µM (inactive), the GI50 [29] was > 10 µM (inactive) and the GI50 [30] was 28.8 µM (inactive). For the same molecule, the GI50 [31] was > 10 µM (inactive), the GI50 [32] was > 100 µM (inactive) and the GI50 [33] was > 10 µM (inactive). For the same molecule, the GI50 [34] was > 100 µM (inactive), the GI50 [35] was > 100 µM (inactive) and the GI50 [36] was > 10 µM (inactive). The GI50 [37] was > 100 µM (inactive), the GI50 [38] was > 10 µM (inactive) and the GI50 [39] was > 10 µM (inactive). For the same molecule, the GI50 [40] was > 10 µM (inactive), the GI50 [41] was 64.6 µM (inactive) and the GI50 [42] was 4.95 µM (inactive). The GI50 [43] was > 100 µM (inactive), the GI50 [44] was > 10 µM (inactive) and the GI50 [45] was 65.6 µM (inactive). The GI50 [46] was > 100 µM (inactive), the GI50 [47] was > 100 µM (inactive) and the GI50 [48] was > 10 µM (inactive). The GI50 [49] was > 100 µM (inactive), the GI50 [50] was > 100 µM (inactive) and the GI50 [51] was > 10 µM (inactive). The GI50 [52] was 47.5 µM (inactive), the GI50 [53] was > 10 µM (inactive) and the GI50 [54] was > 100 µM (inactive). The GI50 [55] was 38.6 µM (inactive), the GI50 [56] was > 100 µM (inactive) and the GI50 [57] was 92.9 µM (inactive). The GI50 [58] was > 100 µM (inactive), the GI50 [59] was > 100 µM (inactive) and the GI50 [60] was 39.3 µM (inactive). For the same molecule, the GI50 [61] was > 10 µM (inactive), the GI50 [62] was > 10 µM (inactive) and the GI50 [63] was greater than 10 µM. For the same molecule, the GI50 [64] was > 65.6 µM (inactive), the GI50 [65] was > 10 µM (inactive) and the GI50 [66] was 7.33 µM (inactive). For the same molecule, the GI50 [67] was 57.8 µM (inactive), the GI50 [68] was > 100 µM (inactive) and the GI50 [69] was > 10 µM (inactive).
